Test results published in ChEMBL document CHEMBL1201862, “PubChem BioAssay data set” (2004).
The source made the active and inactive calls.

What was measured:
[1] = target: T1, Ubiquitin-conjugating enzyme E2 N (Homo sapiens, UniProt P61088); type: functional;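 also: Dose-response confirmation in a TR-FRET assay detecting UBC13-driven polyubiquitin chain formation, inhibition measured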
T1 sequence (P61088 whole entry): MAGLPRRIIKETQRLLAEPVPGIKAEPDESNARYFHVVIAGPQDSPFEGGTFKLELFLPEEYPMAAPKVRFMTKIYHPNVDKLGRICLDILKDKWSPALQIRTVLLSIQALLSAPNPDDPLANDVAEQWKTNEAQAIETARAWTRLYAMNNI

[2] = target: T2, Apoptotic protease-activating factor 1 (Homo sapiens, UniProt O14727); type: functional
T2 sequence (O14727 whole entry): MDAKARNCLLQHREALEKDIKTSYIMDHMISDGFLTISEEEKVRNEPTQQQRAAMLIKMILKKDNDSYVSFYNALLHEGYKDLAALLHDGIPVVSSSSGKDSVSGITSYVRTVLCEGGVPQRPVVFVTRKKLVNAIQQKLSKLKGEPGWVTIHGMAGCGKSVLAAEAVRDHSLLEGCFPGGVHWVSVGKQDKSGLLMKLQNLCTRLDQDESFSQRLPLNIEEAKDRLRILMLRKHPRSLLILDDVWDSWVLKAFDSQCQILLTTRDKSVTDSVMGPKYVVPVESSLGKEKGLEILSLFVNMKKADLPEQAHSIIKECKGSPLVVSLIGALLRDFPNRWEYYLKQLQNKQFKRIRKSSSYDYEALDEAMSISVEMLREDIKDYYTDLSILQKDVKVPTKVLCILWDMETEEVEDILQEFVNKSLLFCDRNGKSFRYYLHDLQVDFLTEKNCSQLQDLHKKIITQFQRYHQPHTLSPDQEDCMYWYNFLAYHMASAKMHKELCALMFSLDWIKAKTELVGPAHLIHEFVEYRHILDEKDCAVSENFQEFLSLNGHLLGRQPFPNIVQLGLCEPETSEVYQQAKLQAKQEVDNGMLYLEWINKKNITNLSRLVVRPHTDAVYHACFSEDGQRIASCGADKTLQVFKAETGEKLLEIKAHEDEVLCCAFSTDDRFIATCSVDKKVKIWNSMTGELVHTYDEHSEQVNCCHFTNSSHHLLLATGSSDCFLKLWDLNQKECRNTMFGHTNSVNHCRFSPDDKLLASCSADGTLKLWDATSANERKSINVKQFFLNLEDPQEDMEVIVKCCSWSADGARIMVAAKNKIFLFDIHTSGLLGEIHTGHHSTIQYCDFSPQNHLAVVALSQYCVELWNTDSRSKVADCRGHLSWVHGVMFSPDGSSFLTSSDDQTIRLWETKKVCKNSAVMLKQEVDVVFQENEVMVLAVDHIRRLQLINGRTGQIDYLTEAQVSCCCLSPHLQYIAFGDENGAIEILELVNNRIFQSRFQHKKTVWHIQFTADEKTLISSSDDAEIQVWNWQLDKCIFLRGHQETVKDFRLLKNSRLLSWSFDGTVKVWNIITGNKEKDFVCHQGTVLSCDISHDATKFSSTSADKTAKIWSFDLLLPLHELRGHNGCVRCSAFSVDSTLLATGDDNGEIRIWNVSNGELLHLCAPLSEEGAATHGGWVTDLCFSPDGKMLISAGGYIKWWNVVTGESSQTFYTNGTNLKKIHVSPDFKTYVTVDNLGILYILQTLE

[3] = HEp-2 cell cytotoxicity, dose response, cytotoxicity control for RSV inhibitor project, HTS (AID 2410); type: functional; settings: human respiratory syncytial virus
[4] = target: Neurotensin receptor type 1 (Homo sapiens, UniProt P30989); type: functional;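 also: Image-based confirmatory dose-response assay measuring agonist activity at NTR1; NTR1-expressing U2OS osteosarcoma cells imaged for beta-arrestin GFP spot formation; agonist potency where compounds increase beta-arrestin recruitment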
Chain of Neurotensin receptor type 1 (P30989 whole entry): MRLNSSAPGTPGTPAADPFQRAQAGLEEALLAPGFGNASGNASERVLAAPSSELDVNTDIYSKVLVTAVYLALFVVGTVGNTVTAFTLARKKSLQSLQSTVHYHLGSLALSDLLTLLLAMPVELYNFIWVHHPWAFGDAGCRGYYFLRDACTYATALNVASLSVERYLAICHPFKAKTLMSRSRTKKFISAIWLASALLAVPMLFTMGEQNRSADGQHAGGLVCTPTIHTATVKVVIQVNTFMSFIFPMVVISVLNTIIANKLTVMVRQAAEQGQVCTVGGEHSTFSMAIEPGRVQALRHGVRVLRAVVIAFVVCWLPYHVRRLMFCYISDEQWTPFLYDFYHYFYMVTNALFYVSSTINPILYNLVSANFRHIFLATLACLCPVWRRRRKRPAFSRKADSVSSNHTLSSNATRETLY

Aminopeptidase N = target: T3, Aminopeptidase N (Plasmodium falciparum FcB1/Columbia, UniProt O96935); experiment: P. falciparum M1AAP inhibitors, biochemical, fluorogenic H-Leu-NHMec substrate, 1536-well (AID 1445); parameters: species or system Plasmodium falciparum 3D7, 3D7
T3 sequence (O96935 whole entry): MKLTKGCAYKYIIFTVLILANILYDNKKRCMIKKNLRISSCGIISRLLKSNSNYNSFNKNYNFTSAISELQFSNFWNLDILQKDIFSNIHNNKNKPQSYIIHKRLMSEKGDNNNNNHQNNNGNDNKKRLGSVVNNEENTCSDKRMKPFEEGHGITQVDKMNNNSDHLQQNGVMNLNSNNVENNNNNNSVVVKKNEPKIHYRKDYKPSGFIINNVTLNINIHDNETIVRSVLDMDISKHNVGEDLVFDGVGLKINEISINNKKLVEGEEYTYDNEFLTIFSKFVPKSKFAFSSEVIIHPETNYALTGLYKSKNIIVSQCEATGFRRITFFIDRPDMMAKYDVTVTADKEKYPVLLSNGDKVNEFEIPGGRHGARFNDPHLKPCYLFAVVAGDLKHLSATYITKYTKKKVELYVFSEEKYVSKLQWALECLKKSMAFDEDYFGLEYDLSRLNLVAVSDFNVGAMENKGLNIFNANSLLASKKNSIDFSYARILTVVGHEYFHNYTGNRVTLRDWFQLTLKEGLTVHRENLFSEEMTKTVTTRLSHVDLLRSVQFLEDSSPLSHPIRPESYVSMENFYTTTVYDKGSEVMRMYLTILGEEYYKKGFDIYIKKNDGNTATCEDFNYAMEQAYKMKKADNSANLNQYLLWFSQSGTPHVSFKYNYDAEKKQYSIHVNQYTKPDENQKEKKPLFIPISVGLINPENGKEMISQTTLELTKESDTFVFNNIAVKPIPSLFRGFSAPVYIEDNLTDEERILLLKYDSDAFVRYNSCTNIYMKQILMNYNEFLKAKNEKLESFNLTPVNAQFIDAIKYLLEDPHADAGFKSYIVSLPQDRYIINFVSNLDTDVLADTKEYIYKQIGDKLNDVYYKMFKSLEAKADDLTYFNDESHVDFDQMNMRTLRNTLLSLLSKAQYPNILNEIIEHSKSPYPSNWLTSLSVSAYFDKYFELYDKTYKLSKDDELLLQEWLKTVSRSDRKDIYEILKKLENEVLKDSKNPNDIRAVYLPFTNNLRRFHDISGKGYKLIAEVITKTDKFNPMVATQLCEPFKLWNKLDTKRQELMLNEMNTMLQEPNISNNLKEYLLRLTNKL

[5] = Counterscreen for IDE inhibitors: Luminescence-based cell-based high throughput dose response assay to identify compounds that are cytotoxic to HEK cells. [Related pubchem assays: 434962 (Primary screen (IDE inhibitors in singlicate)), 449730 (Counterscreen (Cytotoxicity in triplicate)), 435028 (Confirmation (IDE inhibitors in triplicate)) …; type: functional; settings: HEK293
Insulin-degrading enzyme = target: T4, Insulin-degrading enzyme (Homo sapiens, UniProt P14735); experiment: Dose Response: Fluorescence polarization-based cell-based high throughput dose response assay for inhibitors of insulin-degrading enzyme (IDE). [Related pubchem assays: 434962 (Primary screen (IDE inhibitors in singlicate)), 449730 (Counterscreen (Cytotoxicity in triplicate)), 435028 (Confirmation (IDE inhibitors in triplicate)), 434984 (Summary …; type: functional
T4 sequence (P14735 whole entry): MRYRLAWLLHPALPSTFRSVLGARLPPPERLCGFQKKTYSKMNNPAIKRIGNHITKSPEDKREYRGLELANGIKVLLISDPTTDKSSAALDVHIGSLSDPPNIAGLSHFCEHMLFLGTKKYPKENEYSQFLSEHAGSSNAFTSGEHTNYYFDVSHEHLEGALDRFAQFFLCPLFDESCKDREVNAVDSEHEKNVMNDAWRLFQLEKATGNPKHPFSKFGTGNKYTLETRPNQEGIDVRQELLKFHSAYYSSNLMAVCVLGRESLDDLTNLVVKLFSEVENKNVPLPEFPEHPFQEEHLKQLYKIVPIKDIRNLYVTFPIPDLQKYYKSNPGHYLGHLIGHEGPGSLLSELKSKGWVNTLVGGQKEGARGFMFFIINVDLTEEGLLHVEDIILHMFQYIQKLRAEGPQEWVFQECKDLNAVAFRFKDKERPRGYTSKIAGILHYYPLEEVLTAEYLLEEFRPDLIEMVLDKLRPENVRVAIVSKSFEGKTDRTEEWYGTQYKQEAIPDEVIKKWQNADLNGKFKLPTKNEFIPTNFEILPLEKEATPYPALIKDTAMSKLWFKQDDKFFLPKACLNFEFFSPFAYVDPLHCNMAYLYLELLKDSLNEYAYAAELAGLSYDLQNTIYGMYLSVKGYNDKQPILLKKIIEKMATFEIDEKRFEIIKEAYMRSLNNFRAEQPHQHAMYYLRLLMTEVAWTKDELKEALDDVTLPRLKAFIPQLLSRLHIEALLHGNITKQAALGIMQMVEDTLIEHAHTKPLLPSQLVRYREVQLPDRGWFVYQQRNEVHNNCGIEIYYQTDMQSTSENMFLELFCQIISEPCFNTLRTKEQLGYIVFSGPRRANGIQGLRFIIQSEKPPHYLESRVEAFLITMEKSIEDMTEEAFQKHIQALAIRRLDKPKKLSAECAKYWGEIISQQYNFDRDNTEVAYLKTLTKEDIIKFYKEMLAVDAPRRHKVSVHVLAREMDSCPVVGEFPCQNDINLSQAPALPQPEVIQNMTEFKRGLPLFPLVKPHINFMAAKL

[6] = cytotoxicity in HEK-293T cells, dose response, cytotoxicity control for BCR NF-kB inhibitor project, luminescence, B-cell screen hits (AID 489021); type: functional, cell-based;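 also: HEK-293T cells carrying an NF-kB luciferase reporter; cells exposed to compound for about 14 hours before viability readout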
Coagulation factor XII = target: T5, Coagulation factor XII (Homo sapiens, UniProt P00748); type: functional;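 also: activated factor XIIa alpha cleaving a fluorogenic AMC peptide substrate; inhibitor potency from loss of enzyme activity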
T5 sequence (P00748 whole entry): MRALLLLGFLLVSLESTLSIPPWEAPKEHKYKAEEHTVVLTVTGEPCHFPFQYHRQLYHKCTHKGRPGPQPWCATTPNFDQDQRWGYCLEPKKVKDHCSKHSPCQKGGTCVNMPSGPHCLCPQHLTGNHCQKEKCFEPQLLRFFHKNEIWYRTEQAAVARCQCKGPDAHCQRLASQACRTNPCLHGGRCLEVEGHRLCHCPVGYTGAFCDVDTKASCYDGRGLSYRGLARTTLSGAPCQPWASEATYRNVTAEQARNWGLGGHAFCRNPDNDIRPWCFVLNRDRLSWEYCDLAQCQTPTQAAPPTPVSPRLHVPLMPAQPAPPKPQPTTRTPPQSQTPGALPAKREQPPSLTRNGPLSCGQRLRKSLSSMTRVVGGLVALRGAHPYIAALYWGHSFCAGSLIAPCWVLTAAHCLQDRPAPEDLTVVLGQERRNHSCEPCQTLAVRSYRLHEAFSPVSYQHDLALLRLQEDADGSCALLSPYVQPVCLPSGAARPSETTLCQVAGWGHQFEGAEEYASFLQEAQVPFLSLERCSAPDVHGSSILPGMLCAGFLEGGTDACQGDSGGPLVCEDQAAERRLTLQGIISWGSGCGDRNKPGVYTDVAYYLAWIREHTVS

[7] = target: Peroxisome proliferator-activated receptor gamma/Nuclear receptor corepressor 2 (Homo sapiens, UniProt P37231+Q9Y618); type: functional
Chain of Peroxisome proliferator-activated receptor gamma/Nuclear receptor corepressor 2 (P37231 whole entry): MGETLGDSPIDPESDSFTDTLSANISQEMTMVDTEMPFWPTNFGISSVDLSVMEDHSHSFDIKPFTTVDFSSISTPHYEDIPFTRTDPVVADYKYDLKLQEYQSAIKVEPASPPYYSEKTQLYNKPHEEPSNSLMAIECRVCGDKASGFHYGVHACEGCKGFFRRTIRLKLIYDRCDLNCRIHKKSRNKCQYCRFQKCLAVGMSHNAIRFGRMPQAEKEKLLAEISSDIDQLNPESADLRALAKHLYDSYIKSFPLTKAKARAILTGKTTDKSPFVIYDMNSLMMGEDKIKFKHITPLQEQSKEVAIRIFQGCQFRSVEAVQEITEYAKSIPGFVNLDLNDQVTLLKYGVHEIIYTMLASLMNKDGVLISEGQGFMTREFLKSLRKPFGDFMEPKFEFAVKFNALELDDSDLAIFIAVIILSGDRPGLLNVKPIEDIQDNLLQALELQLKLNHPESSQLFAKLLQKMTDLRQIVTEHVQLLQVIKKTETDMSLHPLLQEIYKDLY
Chain of Peroxisome proliferator-activated receptor gamma/Nuclear receptor corepressor 2 (Q9Y618 whole entry): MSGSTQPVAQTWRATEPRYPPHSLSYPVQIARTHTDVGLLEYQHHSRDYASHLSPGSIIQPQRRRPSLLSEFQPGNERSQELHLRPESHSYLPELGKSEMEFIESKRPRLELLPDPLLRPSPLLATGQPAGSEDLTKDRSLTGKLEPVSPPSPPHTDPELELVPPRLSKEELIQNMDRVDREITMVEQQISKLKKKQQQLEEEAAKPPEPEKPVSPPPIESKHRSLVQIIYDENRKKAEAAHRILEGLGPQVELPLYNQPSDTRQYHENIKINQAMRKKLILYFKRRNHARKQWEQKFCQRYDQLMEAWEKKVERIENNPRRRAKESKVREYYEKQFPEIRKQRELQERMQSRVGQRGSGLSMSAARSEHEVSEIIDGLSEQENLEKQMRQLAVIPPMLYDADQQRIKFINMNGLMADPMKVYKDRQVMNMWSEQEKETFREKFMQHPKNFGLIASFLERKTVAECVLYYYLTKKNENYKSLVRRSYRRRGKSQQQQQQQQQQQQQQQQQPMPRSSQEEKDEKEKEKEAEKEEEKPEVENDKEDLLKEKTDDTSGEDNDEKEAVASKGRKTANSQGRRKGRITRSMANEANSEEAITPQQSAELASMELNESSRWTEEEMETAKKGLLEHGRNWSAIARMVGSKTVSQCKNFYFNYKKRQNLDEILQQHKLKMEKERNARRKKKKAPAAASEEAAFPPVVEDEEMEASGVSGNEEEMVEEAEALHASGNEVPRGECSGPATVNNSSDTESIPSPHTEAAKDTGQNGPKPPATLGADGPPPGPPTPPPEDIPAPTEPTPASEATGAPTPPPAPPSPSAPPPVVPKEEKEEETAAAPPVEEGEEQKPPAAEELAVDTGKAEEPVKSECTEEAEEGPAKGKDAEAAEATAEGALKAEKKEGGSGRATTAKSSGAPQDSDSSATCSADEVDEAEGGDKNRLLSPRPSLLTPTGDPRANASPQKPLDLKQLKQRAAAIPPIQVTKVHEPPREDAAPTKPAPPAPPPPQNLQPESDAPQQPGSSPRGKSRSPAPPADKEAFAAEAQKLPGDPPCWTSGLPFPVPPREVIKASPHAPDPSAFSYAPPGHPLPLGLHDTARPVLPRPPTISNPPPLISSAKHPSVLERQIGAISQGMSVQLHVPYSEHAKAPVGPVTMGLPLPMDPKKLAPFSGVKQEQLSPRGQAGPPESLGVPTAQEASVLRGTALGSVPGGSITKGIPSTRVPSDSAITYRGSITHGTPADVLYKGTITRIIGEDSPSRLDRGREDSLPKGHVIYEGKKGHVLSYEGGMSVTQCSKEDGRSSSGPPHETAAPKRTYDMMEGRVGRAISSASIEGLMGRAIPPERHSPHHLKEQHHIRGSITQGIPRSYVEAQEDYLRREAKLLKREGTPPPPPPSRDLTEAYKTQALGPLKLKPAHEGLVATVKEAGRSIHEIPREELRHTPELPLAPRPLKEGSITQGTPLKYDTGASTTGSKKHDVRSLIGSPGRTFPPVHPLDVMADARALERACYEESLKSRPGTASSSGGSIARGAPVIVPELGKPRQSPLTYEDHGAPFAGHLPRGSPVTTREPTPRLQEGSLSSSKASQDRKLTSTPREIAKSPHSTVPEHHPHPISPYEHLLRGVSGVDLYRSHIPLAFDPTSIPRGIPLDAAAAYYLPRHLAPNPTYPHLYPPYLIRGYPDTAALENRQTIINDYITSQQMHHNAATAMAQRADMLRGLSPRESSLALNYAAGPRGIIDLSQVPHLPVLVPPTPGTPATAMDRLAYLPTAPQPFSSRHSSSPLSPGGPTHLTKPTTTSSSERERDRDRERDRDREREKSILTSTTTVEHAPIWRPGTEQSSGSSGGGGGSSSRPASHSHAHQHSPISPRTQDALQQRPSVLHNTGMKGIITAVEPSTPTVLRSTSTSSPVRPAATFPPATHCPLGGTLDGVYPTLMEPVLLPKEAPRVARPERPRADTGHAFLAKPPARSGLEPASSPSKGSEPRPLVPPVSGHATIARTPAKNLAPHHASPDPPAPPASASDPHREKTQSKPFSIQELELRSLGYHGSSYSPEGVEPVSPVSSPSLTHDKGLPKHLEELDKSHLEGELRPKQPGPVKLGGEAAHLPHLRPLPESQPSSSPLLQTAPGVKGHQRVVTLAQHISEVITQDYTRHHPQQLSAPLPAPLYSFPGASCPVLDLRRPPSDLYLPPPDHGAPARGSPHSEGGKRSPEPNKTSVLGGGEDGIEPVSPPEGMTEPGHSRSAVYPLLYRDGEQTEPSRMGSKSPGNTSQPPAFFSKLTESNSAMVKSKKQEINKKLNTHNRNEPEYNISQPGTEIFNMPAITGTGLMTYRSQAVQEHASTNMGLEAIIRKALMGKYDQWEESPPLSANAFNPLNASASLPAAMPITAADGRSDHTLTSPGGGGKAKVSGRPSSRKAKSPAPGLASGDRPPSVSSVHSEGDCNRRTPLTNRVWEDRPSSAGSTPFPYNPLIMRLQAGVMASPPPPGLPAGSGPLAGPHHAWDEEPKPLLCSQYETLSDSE

[8] = target: Photoreceptor-specific nuclear receptor (Homo sapiens, UniProt Q9Y5X4); type: functional;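 also: potency for compounds that break the NR2E3 corepressor complex and count as activators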
Chain of Photoreceptor-specific nuclear receptor (Q9Y5X4 whole entry): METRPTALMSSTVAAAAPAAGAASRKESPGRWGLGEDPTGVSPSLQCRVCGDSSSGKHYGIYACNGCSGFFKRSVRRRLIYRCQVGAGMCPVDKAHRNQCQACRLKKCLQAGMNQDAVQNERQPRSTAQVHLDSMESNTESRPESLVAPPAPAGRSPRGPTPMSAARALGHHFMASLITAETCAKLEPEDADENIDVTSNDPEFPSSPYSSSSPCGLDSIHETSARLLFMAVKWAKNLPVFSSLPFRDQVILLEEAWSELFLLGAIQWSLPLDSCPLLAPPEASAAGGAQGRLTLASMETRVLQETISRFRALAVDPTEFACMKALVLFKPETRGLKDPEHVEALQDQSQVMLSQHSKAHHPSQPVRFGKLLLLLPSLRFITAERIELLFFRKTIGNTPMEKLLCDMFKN

Cc1ccc(NC(=O)CN(C)C(=O)c2ccc3[nH]c4c(c3c2)CC(C)CC4)cc1 (centres undefined)
IC50 [1]: > 20 µM (inactive)
IC50 (cells): 22.2 µM (active)
IC50 [2]: > 100 µM (inactive)
CC50 [3]: 28.2 µM (active)

CCOc1ccc(C(=O)Nc2nnc(NC(=S)Nc3ccccc3)s2)cc1
EC50 [4]: 9.68 µM (active)

Cc1cccc(N2C(=O)/C(=C/Nc3ccccc3-c3nnc(S)nc3O)c3ccccc3C2=O)n1
IC50 (Aminopeptidase N): 60.4 µM (active)
IC50 [5]: > 55.7 µM (not active)
IC50 (Insulin-degrading enzyme): 12.2 µM (not active)

CCOC(=O)N1CCN(c2[nH]cnc3c4cc(OC)ccc4nc2-3)CC1
IC50 [6]: 56.9 µM (inactive)
IC50 [5]: 18.4 µM (not active)
IC50 (Insulin-degrading enzyme): 9.15 µM (active)

Cc1nn(CCc2nnn[nH]2)c2nc(-c3ccc(Br)cc3)cc(C(F)(F)F)c12
IC50 (Coagulation factor XII): > 50 µM (inactive)
IC50 [7]: 4.7 µM (active)
IC50 [8]: > 39.8 µM (not active)
